Data: PubChem BioAssay (NCI)
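The compound was tested at five concentrations on cells cultured in 96-well plates, with a 48-hour exposure period. TGI: concentration producing complete growth inhibition.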

Tests used:
Assay in all cases: NCI tumour cell line growth inhibition, 48 h
[1] = tested on: SK-MEL-2 melanoma
[2] = tested on: CAKI-1 renal
[3] = tested on: DU-145 prostate
[4] = tested on: CCRF-CEM leukemia
[5] = tested on: SNB-75 CNS
[6] = tested on: OVCAR-5 ovarian
[7] = tested on: A498 renal
[8] = tested on: NCI/ADR-RES ovarian
[9] = tested on: SK-OV-3 ovarian
[10] = tested on: UACC-62 melanoma
[11] = tested on: UACC-257 melanoma
[12] = tested on: HOP-92 NSCLC
[13] = tested on: BT-549 breast
[14] = tested on: SW-620 colon
[15] = tested on: HT29 colon
[16] = tested on: MDA-MB-231 breast
[17] = tested on: UO-31 renal
[18] = tested on: HCT-116 colon
[19] = tested on: RPMI-8226 leukemia
[20] = tested on: T-47D breast
[21] = tested on: PC-3 prostate
[22] = tested on: HCT-15 colon
[23] = tested on: COLO 205 colon
[24] = tested on: HL-60(TB) leukemia
[25] = tested on: NCI-H460 lung
[26] = tested on: NCI-H226 lung
[27] = tested on: SN12C renal
[28] = tested on: EKVX NSCLC
[29] = tested on: OVCAR-3 ovarian
[30] = tested on: SF-268 CNS
[31] = tested on: NCI-H522 lung
[32] = tested on: ACHN renal
[33] = tested on: SK-MEL-5 melanoma
[34] = tested on: SNB-19 CNS
[35] = tested on: M14 melanoma
[36] = tested on: MOLT-4 leukemia
[37] = tested on: RXF 393 renal
[38] = tested on: 786-0 renal
[39] = tested on: A549 NSCLC
[40] = tested on: SR leukemia
[41] = tested on: MCF7 breast
[42] = tested on: MALME-3M melanoma
[43] = tested on: TK-10 renal
[44] = tested on: SF-539 CNS
[45] = tested on: SF-295 CNS
[46] = tested on: K-562 leukemia
[47] = tested on: OVCAR-4 ovarian
[48] = tested on: SK-MEL-28 melanoma
[49] = tested on: HOP-62 NSCLC
[50] = tested on: HS 578T breast
[51] = tested on: LOX IMVI melanoma
[52] = tested on: OVCAR-8 ovarian
[53] = tested on: KM12 colon
[54] = tested on: MDA-MB-435
[55] = tested on: U251 CNS
[56] = tested on: IGROV1 ovarian
[57] = tested on: NCI-H23 lung

CC1(C)CC[C@]2(C(=O)O)CC[C@]3(C)[C@H](C(=O)C=C4[C@@]5(C)C=C(C#N)C(=O)C(C)(C)[C@@H]5CC[C@]43C)[C@@H]2C1
TGI [1]: 3.88 µM | TGI [2]: 3.46 µM | TGI [3]: 2.39 µM | TGI [4]: > 100 µM | TGI [5]: 2.84 µM | TGI [6]: 2.12 µM | TGI [7]: 0.977 µM | TGI [8]: 4.68 µM | TGI [9]: 14.8 µM | TGI [10]: 4.43 µM | TGI [11]: 2.84 µM | TGI [12]: 8.16 µM | TGI [13]: 4.11 µM | TGI [14]: 2.42 µM | TGI [15]: 6.43 µM | TGI [16]: 7.34 µM | TGI [17]: 6.29 µM | TGI [18]: 4.76 µM | TGI [19]: 1.19 µM | TGI [20]: 4.34 µM | TGI [21]: 1.97 µM | TGI [22]: 1.7 µM | TGI [23]: 1.49 µM | TGI [24]: 11.4 µM | TGI [25]: 22.2 µM | TGI [26]: 4.02 µM | TGI [27]: 2.97 µM | TGI [28]: 9.68 µM | TGI [29]: 0.785 µM | TGI [30]: 7.78 µM | TGI [31]: 5.48 µM | TGI [32]: 4.47 µM | TGI [33]: 1.69 µM | TGI [34]: 3.64 µM | TGI [35]: 4.32 µM | TGI [36]: 13.9 µM | TGI [37]: 1.5 µM | TGI [38]: 3.39 µM | TGI [39]: 5.86 µM | TGI [40]: 2.06 µM | TGI [41]: 5.14 µM | TGI [42]: 1.55 µM | TGI [43]: 2.02 µM | TGI [44]: 4.05 µM | TGI [45]: 1.97 µM | TGI [46]: 27.1 µM | TGI [47]: 23.2 µM | TGI [48]: 2.35 µM | TGI [49]: 3.28 µM | TGI [50]: 10.4 µM | TGI [51]: 1.1 µM | TGI [52]: 2.42 µM | TGI [53]: 1.61 µM | TGI [54]: 3 µM | TGI [55]: 3.01 µM | TGI [56]: 7.15 µM | TGI [57]: 0.628 µM
